PMC3368886, “ATPase Cycle and DNA Unwinding Kinetics of RecG Helicase” (PLoS ONE, 2012)
pKd, pKi: −log10 of the molar value.

Legend:
RecG [1] = biological target: T1, RecG (Thermotoga maritima, UniProt Q9WY48); assay: Phosphate-water oxygen exchange during hydrolysis; type: biochemical; settings: DNA present (A40∶B40), γ-18O3 nucleotide, 25°C
T1 construct: made in house
T1 sequence (Q9WY48 1-780): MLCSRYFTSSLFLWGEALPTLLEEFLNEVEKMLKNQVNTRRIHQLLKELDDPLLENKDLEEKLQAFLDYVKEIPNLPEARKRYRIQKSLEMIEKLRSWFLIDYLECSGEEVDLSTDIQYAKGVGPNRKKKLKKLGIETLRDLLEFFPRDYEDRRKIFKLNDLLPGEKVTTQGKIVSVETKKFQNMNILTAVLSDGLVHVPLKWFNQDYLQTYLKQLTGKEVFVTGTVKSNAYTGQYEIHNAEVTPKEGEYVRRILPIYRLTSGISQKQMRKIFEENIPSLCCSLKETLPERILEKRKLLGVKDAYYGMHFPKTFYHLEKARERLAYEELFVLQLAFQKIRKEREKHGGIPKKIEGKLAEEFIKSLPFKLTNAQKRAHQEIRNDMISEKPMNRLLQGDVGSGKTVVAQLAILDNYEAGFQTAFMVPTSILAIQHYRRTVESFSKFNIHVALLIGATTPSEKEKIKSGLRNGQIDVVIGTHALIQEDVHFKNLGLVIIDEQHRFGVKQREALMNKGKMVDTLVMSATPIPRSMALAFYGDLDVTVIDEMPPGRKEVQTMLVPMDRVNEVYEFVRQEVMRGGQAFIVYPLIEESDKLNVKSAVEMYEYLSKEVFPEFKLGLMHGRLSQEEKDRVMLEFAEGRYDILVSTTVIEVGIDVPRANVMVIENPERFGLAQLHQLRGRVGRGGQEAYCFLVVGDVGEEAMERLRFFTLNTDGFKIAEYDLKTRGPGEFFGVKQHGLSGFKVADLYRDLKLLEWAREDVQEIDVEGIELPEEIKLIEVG
Text: In order to get information about the reverse of cleavage step 2 (scheme in Figure 2A), phosphate-water oxygen exchange measurements were done using (γ-^18O3)mantATP. Intermediate exchange can occur between terminal oxygens of the nucleotide and water during hydrolysis, giving information about the value of k +3 /k −2, as previously described. In this case, (γ-^18O3)mantATP was used as substrate and partial hydrolysis occurred in the presence of RecG⋅DNA, as described in the materials and methods section. The Pi had very similar distribution of oxygen-18 as with (γ-^18O3)mantATP, consistent with essentially little reversal of the cleavage step (k +3 /k −2≥9). This is consistent with a rapid release of Pi.
For intermediate exchange during ATP hydrolysis, 0.5 µM RecG and 1 mM (γ-^18O3)ATP or (γ-^18O3)mantATP were incubated for 10 min (+1 µM DNA A40∶B40, Table S1) or 20 min (- DNA) at 25°C in a volume of 100 µl in the buffer described below. Pi was analyzed for distribution of different ^18O-labeled species on a mass spectrometer as described previously, [37] except that during purification, the ^18O-labeled Pi was detected by MDCC-PBP, rather than radioactive tracers.
Supplementary file pone.0038270.s005.pdf: Table S2 Oxygen exchange during ATP or mantATP hydrolysis by RecG: distributions of oxygen-18 in the Pi product. Experiments were performed as described in Materials and Methods. The data were corrected for isotopic enrichment of the starting nucleotide, 93% for (γ-^18O3)mantATP and 98% for (γ-^18O3) ATP. […] Each distribution is the average of three mass spectral assays. Thus the distributions are for the product Pi as though the starting enrichment was 100%. In all cases there was very little oxygen exchange as shown by the large peak of (^18O3)Pi, in which all three γ-oxygens of ATP are retained. The distributions were then used to compute the ratio of rate constants for Pi release (k +3) and on-enzyme ATP resynthesis (k −2) as in Figure 2 [14], [37].

RecG [2] = biological target: T1, RecG; assay: Steady-state ATPase rate measurements with phosphate biosensor MDCC-PBP; type: biochemical; settings: for pKi: 10 µM ATP, varying inhibitor; for tightness of binding (competitive inhibition): result in words
Text: Steady-state measurements were made to gain an overall assessment of the reaction and the affinities of various nucleotides before investigating the individual steps in the ATPase cycle. A two-strand DNA junction, which contains two 20-bp regions of complementary and non-complementary sequences (A40:B40 Figure 1 and Table S1), was used in all these measurements. This forms a Y-shape structure and RecG translocates one single-stranded arm, but then remains bound to the end of the junction still hydrolyzing ATP [10].
All reactions with RecG and DNA were done at 20°C in a buffer containing 50 mM Tris⋅acetate (pH 8.0), 30 mM potassium acetate, 3 mM magnesium acetate and 1 mM DTT. ATPase measurements using MDCC-PBP were taken in the presence of a Pi mop, as described above. Steady-state ATPase measurements were taken in a solution (60 µl) at 20°C, containing 10 nM RecG, 500 nM DNA junction (A40∶B40, see Table S1) and 10 µM MDCC-PBP with varying nucleotide concentrations as substrate or inhibitor [23].

RecG⋅DNA(A40:B40) [3] = biological target: T2, RecG⋅DNA(A40:B40) (Thermotoga maritima, UniProt Q9WY48); assay: Stopped-flow mant fluorescence: mant nucleotide binding to RecG⋅DNA, pseudo-first-order
T2 construct: made in house
T2 sequence (Q9WY48 1-780): T1 sequence (Q9WY48 1-780)
Description: MantATP binding to RecG⋅DNA(A40:B40) was measured under pseudo-first-order conditions, that is mantATP in large excess over the protein. Using the stopped-flow apparatus, several concentrations of mantATP were rapidly mixed with RecG⋅DNA and fluorescence followed with time. Each trace was fitted by a single exponential (Figure 3A) and the concentration dependence of the observed rate constants were fit well by a hyperbola (Figure 3B). […] As mantATP is also hydrolyzed, the rate of the forward reaction needs to be included, in this case limited by the cleavage step 2, as described later. The fit gives 1/K 1a as 24 (±4) µM, k +1b + k −1b + k +2 as 26.1 (±1.8) s^−1 and the intercept gives k −1b + k +2 as <1 s^−1. Given that k +2 is 0.2 s^–1 (see below), k −1b is <0.8 s^−1. Potentially, an alternative explanation for such a hyperbolic relationship could be preferential binding of either the 2′- or 3′-isomer of mantATP and then isomerization of the non-favored isomer. However, the observed rates in these measurements were several orders of magnitude faster than the likely isomerization rate. In order to assess whether the two isomers of mantATP and their interconversion are factors in any fluorescence traces for mantATP, an equivalent measurement was made using 3′-mant-2′-deoxyATP.
Figure 3 MantATP binding to RecG⋅DNA. MantATP at the micromolar concentrations shown was mixed in the stopped flow apparatus with 0.5 µM RecG and 2.5 µM DNA Junction (A40:B40) at 20°C in the buffer described in materials and methods. Individual traces (offset from each other) were fitted to single exponentials and the dependence of the rate constants on concentration was then fitted by a hyperbola. The points shown are averages of at least 3 measurements. The fit gives 1/K 1a as 24 (±4) µM and k +1b + k− 1b + k +2 as 26.1 (±1.8) s^−1 and the intercept was <1 s^–1 (Scheme in Figure 2B).
MantADP binding to RecG⋅DNA complex was measured under pseudo-first order conditions by stopped-flow fluorescence.
Figure 5 MantADP binding kinetics to RecG⋅DNA. MantADP at various concentrations was mixed in the stopped flow apparatus with 0.5 µM RecG and 2.5 µM DNA (A40:B40) under the conditions of Figure 4. Traces (not shown) were fitted by single exponentials. The rate constants are shown as a function of concentration and the best linear fit, gives a slope of 1.1 (±0.4) µM^−1s^−1 and an intercept of <1 s^−1.
(§1) Stopped-flow experiments were performed in a HiTech SF61DX2 apparatus (TgK Scientific Ltd, Bradford-on-Avon, UK) with a mercury-xenon light source and HiTech KinetAsyst 3 or Kinetic Studio 1 software. For MDCC-PBP fluorescence, the excitation wavelength used was 436 nm and a 455 nm cut-off filter (Schott glass) used to collect emitted light. The signal was calibrated using known concentrations of Pi. The solutions contained the Pi mop, to minimize phosphate contamination and comprising 0.01 unit ml^−1 bacterial purine nucleoside phosphorylase and 200 µM 7-methylguanosine. For mant fluorescence, 366 nm was used to excite and a 400 nm cut-off filter (Schott glass) used to collect light. Measurements of Cy3 fluorescence used 547 nm excitation and a 570 nm cut-off filter. In experiments described, the quoted concentrations are those in the mixing chamber, except where stated. Data were fitted to theoretical curves using the HiTech software or Grafit.

RecG⋅DNA(A40:B40) [4] = biological target: T2, RecG⋅DNA(A40:B40); assay: Single turnover mant fluorescence, excess RecG⋅DNA over mantATP; type: biochemical; settings: excess RecG⋅DNA(A40:B40)
Description: Extra information relating to changes in a single ATPase cycle can be obtained by mixing excess RecG⋅DNA(A40:B40) with mantATP (Figure 4A). […] The first change in fluorescence is presumably due to binding. After fitting to a double exponential, the observed rate constant for the initial change was linearly dependent on RecG concentration over the small range possible (0.5 µM –2.5 µM), limited by protein precipitation at higher concentrations. Due to the low concentrations, a hyperbolic dependence would not be observed. The observed rate constant of the second increase in fluorescence, 0.22 (±0.05) s^−1 (Figure 4A), was independent of RecG concentration. This second phase is likely to be due to the cleavage step, leading to the formation of bound mantADP.
Figure 4 Kinetic measurement of mantATP with excess of RecG and DNA: binding, hydrolysis and Pi release. The concentrations for all experiments were 0.5 µM mantATP, 2.5 µM RecG, 5 µM DNA (A40:B40) and 10 µM MDCC-PBP (for Pi measurement). All measurements were carried out at 20°C in the buffer described in Materials and Methods. (A) Time course of mant fluorescence (solid line), mantADP formation (circles) and Pi release (dashed line), measured as described in materials and methods. […] (B) Simulation of these time courses, based upon a global model for a single turnover of mantATP as described in the text. (C) The time course of mant fluorescence upon mixing 0.5 µM mantATP and 2.5 µM RecG with 5 µM DNA junction (A40:B40) after a first mixing of 5 µM RecG and 1 µM mantATP and aging for 1 s.
as §1

RecG [5] = biological target: T1, RecG; assay: Titrations of RecG into fluorescent nucleotides in the absence of DNA; type: binding
Description: The two phases of this fluorescence increase with excess RecG⋅DNA would therefore relate to formation of bound mantATP (1.5-fold intensity increase relative to free nucleotide) and bound mantADP (4.9-fold). This interpretation was supported by titrations of RecG into the fluorescent nucleotides in the absence of DNA.
Steady-state fluorescence was measured using a Cary Eclipse fluorimeter (Varian) with a xenon light source. Absorbance spectroscopy was performed using a Beckman DU640 spectrophotometer.

[6] = 20°C, 10 nM RecG, 500 nM DNA junction (A40:B40)
[7] = 500 nM DNA junction (A40:B40), 20°C

Compound: (γ-^18O3)mantATP
- k +3 /k −2 (RecG [1]): ≥ 9

Compound: CNc1ccccc1C(=O)O[C@H]1C[C@H](n2cnc3c(N)ncnc32)O[C@@H]1COP(=O)(O)OP(=O)(O)OP(=O)(O)O [Mant-deoxyATP, 3′-mant-2′-deoxyATP]
- K m (RecG [2]; [6]): 3.1 (±1.4) µM
- k cat (RecG [2]; [6]): 1.3 (±0.5) s^−1

Compound: Nc1ncnc2c1ncn2[C@@H]1O[C@H](COP(=O)(O)OP(=O)(O)NP(=O)(O)O)[C@@H](O)[C@H]1O [AMPPNP]
- pKi (RecG [2]; [7]): 4.36
- tightness of binding (competitive inhibition) (RecG [2]): bound weakly

Compound: Nc1ncnc2c1ncn2[C@@H]1O[C@H](CO[P@](=O)(O)O[P@](=O)(O)O[P@@](=O)(O)S)[C@@H](O)[C@H]1O [ATPγS]
- pKi (RecG [2]; [7]): 6.05
- tightness of binding (competitive inhibition) (RecG [2]): bound tightly
- rate of hydrolysis (RecG [2]; slowly hydrolyzed analogue): 0.1 s⁻¹

Compound: CNc1ccccc1C(=O)O[C@H]1[C@@H](O)[C@H](n2cnc3c(N)ncnc32)O[C@@H]1COP(=O)(O)OP(=O)(O)O [mantADP]
- pKi (RecG [2]; [7]): 7.52
- k +4 (mantADP dissociation rate constant, intercept) (RecG⋅DNA(A40:B40) [3]; 20°C, linear fit): < 1 s⁻¹
- pKd (RecG⋅DNA(A40:B40) [3]; mantADP with RecG⋅DNA, used as model assumption): > 7.30
- increase in fluorescence on binding to RecG⋅DNA (RecG⋅DNA(A40:B40) [3]; same conditions as hydrolysis and Pi release measurements): 4.5 fold
- fluorescence intensity increase of bound nucleotide relative to free nucleotide (RecG⋅DNA(A40:B40) [4]): 4.9 fold
- increase in fluorescence on titration with RecG (RecG [5]): 4.8 fold

Compound: CNc1ccccc1C(=O)O[C@H]1C[C@H](n2cnc3c(N)ncnc32)O[C@@H]1COP(=O)(O)OP(=O)(O)O [Mant-deoxyADP]
- pKi (RecG [2]; [7]): 7.00
